{"source": "patent US20100310563A1", "about": "“METHODS FOR TREATING INDUCED CELLULAR PROLIFERATIVE DISORDERS” (priority 2007, published 2010)", "test_system": "phosphorylated JAK2 in GFP positive peripheral blood granulocytes of the JAK2V617F mouse", "test": "FACS analysis of intracellular JAK2 phosphorylation in peripheral blood granulocytes", "type": "cell-based", "details": "with IL-3 and G-CSF stimulation for 60 minutes, GFP-positive granulocytes of a JAK2V617F mouse, FIG. 4B bottom", "description": "White cells from bone marrow and spleen were resuspended in staining buffer (BD Biosciences). Aliquots of 1×10^6 cells were stained for 20 minutes with conjugated monoclonal antibodies. Cells were washed in staining buffer and analyzed by FACS. For FACS analysis of intracellular JAK2 phosphorylation, peripheral blood of one JAK2V617F mouse and three normal BALB/c mice were collected. WBC from normal BALB/c mice were pooled together. Cells were split into three aliquots and resuspended in RPMI 1640 (Life Technologies) containing 0.5% BSA and incubated for 15 hours. Following incubation, one aliquot was stimulated with 10 ng/mL IL-3 plus 10 ng/mL granulocyte colonystimulating factor (G-CSF; StemCell) and second aliquot was stimulated with 10 ng/mL IL3, 10 ng/mL G-CSF, and 10 Amol/L AG-490 (Calbiochem) for 60 minutes and third aliquot was left unstimulated. Cells ([…]) were resuspended in 50 AL staining buffer (1% BSA and 0.1% sodium azide in PBS) and permeabilized using Fix&Perm cell permeabilization kit (Caltag Laboratories, Burlingame, Calif. and An der Grub, Vienna, Austria). The granulocyte population was selected by forward and side scatter\nTo test if the mutant JAK2V617F kinase in murine leukocytes is constitutively active, peripheral blood granulocytes was analyzed by FACS for phosphorylated JAK2. […]"}
{"smiles": "N#C/C(=C/c1ccc(O)c(O)c1)C(=O)NCc1ccccc1", "note": "[AG490]", "values": [{"measurement": "phosphorylated JAK2 levels", "value": "reduced phosphorylated JAK2 levels below baseline"}]}
